These results are taken from paper PMC6342301, “Potent, multi-target serine protease inhibition achieved by a simplified β-sheet motif” (PLoS ONE, 2019).

Where two headings read alike, the source gives them in different places. Bridge positions count the residues as written; N and C are the ends. Peptide text beside a SMILES is read from it.

Test [1] concerns the target T1, KLK7 (Homo sapiens, UniProt P49862).
T1 construct: made in house; host or cells: Pichia pastoris strain X-33
The test is described as follows: Competitive inhibition assay against KLK7 (KHLY-pNA substrate). It counts as biochemical. The conditions noted are these: for Ki: KLK7, substrate KHLY-pNA, Morrison equation. The text has this:
KLK7 was produced as a zymogen in the yeast Pichia pastoris strain X-33 previously developed and optimised by Dr Maria Brattsand [29]. Expressed proteins were purified using cation exchange chromatography on UnoSphere S (Biorad) and activated by treatment with enterokinase (10 units per milligram purified zymogen; Thermo Fisher Scientific) before a final polishing step to remove enterokinase, again using cation exchange chromatography. The active site concentration of purified KLK7 was determined using the serpin α1- proteinase inhibitor (A1PI) which binds to KLK7 with 1:1 stoichiometry. Briefly, a fixed amount of KLK7 was pre-incubated with a range of inhibitor concentrations at room temperature for 20 min before adding a constant concentration of substrate KHLY-pNA. The residual KLK7 activities were measured as the increase of absorbance at 405 nm for 10 min (ΔOD405/min) and plotted against respective inhibitor concentrations. The active site concentration was determined by linear regression to find the concentration of inhibitor required for complete KLK7 inhibition (ΔOD405/min drops to zero), which is equal to the concentration of KLK7 active site.
Inhibitory property of SFTI inhibitors was assessed by determining the inhibition constant (Ki) in competitive inhibition assays against a range of proteases as described before. Serial dilutions of the inhibitor were pre-incubated with a fix concentration of protease in assay buffer (0.1 M Tris pH 8.0, 0.1 M NaCl and 0.05% Triton X-100) at room temperature for 10 min. Assays were initiated by addition of respective peptide-pNA substrates. Absorbance changes at 405 nm were monitored using a micro plate spectrophotometer (Bio-rad Benchmark Plus) over 5 min. Inhibition constants were calculated in GraphPad Prism 5.01 (La Jolla California, USA) by non-linear regression using the Morrison equation for tight binding inhibitors.

In test [2] the target is T1, KLK7. Further details: method as in PMID 26393374. The conditions noted are these: substrate KHLY-pNA; cited from earlier work.
The target of test [3] is Trypsin. The conditions noted are these: substrate Ac-YASR-pNA; cited from earlier work.
Test [4] deals with KLK5. The conditions noted are these: substrate Ac-YRSR-pNA; cited from earlier work.
Test [5] concerns the target KLK14. The conditions noted are these: substrate Ac-YANR-pNA; cited from earlier work.
In test [6] the target is T1, KLK7. The conditions noted are these: cited from earlier work.

For orientation: Ki means a measure of affinity in units of concentration, obtained from inhibition or displacement.

T1 sequence (P49862 30-253): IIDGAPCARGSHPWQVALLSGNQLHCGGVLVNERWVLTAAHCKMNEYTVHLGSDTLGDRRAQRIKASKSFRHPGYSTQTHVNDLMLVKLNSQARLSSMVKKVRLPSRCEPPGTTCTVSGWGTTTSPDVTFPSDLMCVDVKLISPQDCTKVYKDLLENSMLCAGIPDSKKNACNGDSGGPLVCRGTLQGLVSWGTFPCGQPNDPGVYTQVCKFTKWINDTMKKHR

In the case of `CC[C@H](C)[C@@H]1NC(=O)[C@@H]2CCCN2C(=O)[C@@H]2CCCN2C(=O)[C@H]([C@@H](C)CC)NC(=O)[C@H](CO)NC(=O)[C@H](CCCCN)NC(=O)[C@H]([C@@H](C)O)NC(=O)[C@@H]2CSSC[C@H](NC1=O)C(=O)N[C@@H](Cc1ccccc1)C(=O)N1CCC[C@H]1C(=O)N[C@@H](CC(=O)O)C(=O)NCC(=O)N[C@@H](CCCNC(=N)N)C(=O)N2` [SFTI-1, Sunflower trypsin inhibitor-1, reference compound], the affinity in test [1], expressed as Ki, was 4800 ± 200 nM.

For the molecule `CC[C@H](C)[C@@H]1NC(=O)[C@@H]2CCCN2C(=O)[C@@H]2CCCN2C(=O)[C@H]([C@@H](C)CC)NC(=O)[C@H](CO)NC(=O)[C@H](CCCNC(=N)N)NC(=O)[C@H]([C@@H](C)O)NC(=O)[C@@H]2CSSC[C@H](NC1=O)C(=O)N[C@@H](Cc1ccccc1)C(=O)N1CCC[C@H]1C(=O)N[C@@H](CC(=O)O)C(=O)NCC(=O)N[C@@H](CCCNC(=N)N)C(=O)N2` [SFTI-RCTR] (cyclo(CFPDGRCTRSIPPI); disulfide 1-7), affinity in test [1] was put at a Ki of 220 ± 6 nM.

Turning to “SFTI-TCTR: SFTI variant GTCTRSIPPICNPN with four mutations R2T (P4), K5R (P1), F12N, D14N in the cyclic backbone (head-to-tail cyclic backbone)”, the “fold increased inhibitory potency against KLK7 compared to SFTI-1” value in test [1] (ratio of Ki values, relative to SFTI-1) amounted to 286 fold. Also, in test [1] (ratio of Ki values, relative to SFTI-RCTR), the “fold increase in KLK7 inhibitory potency compared to SFTI-RCTR” value came out at 13 fold. The inhibition constant Ki in test [2] was 17 ± 0.4 nM; in test [3], 0.7 ± 0.07 nM; in test [4], 2 ± 0.1 nM; in test [5], 0.4 ± 0.02 nM.

B1: recombinant LEKTI fragment comprising domains 8–11: recombinant LEKTI fragment comprising domains 8–11 (protein)
chain: EAAKEICSEFRDQVRNGTLICTREHNPVRGPDGKMHGNKCAMCASVFKLEEEEKKNDKEEKGKVEAEKVKREAVQELCSEYRHYVRNGRLPCTRENDPIEGLDGKIHGNTCSMCEAFFQQEAKEKERAEPRAKVKREAEKETCDEFRRLLQNGKLFCTRENDPVRGPDGKTHGNKCAMCKAVFQKENEERKRKEEEDQRNAAGHGSSGGGGGNTQDECAEYREQMKNGRLSCTRESDPVRDADGKSYNNQCTMCKAKLEREAERKNEY
modifications: intradomain disulfides; check residue is from a known polymorphic site (R711Q), not from the pape
For B1, the inhibition constant (Ki) in test [6] is 34.8 nM.
